Like-named read-outs stand apart in the source and are kept apart here.
Key:
[1] = Peptide degradation assay in purified cytosol from PBMC; format: in vitro ADME; conditions: human, s9, amount equivalent to endolysosomes (same number of cells), 8 nM peptide in degradation buffer (20 mM HEPES, 1 mM MgCl2, 137 mM K acetate, 1 mM ATP), 37°C, % original peptide remaining by RP-HPLC, representative of two replicates
Text: The percentage of acid phosphatase activity in each fraction was used to determine the number of cells that yielded endolysosomes in each fraction. […] The disappearance of the peptide was monitored by RP-HPLC, where the amount of peptide is proportional to the surface area under its peak.
(§1) Endolysosomes were purified from crude PBMC lysate by differential centrifugation. PBMCs were isolated from human buffy coats using Ficoll centrifugation [29]. Cells resuspended in extraction buffer at a concentration of 5 × 10^8 cells/ml [30] were lysed using glass beads as in a previous study done in our laboratory [31]. The cell lysate was centrifuged at 1000g for 10 min at 4°C. The supernatant was transferred to a new tube and centrifuged at 20,000 g for 20 min at 4°C. The resulting pellet consists of endoplasmic reticulum, mitochondria and endolysosomes. The supernatant corresponds to purified cytosolic fraction. […] 120 μl fractions were collected and further analyzed for endolysosomal enrichment.
In studies involving purified endolysosome, an acid phosphatase assay was performed on the fractions and the amount of acid phosphatase activity was used to calculate the total number of cells from which each fraction was derived. […] Another 50 μl of the degradation buffer was added to each sample and the amount of peptide remaining was analyzed by RP-HPLC.

[2] = human, cells or culture medium
Text: The percentage of acid phosphatase activity in each fraction was used to determine the number of cells that yielded endolysosomes in each fraction. […] The disappearance of the peptide was monitored by RP-HPLC, where the amount of peptide is proportional to the surface area under its peak. Upon degradation the peak area reduced and additional peaks corresponding to degradation products appeared [15].
(§2) We performed a degradation assay as mentioned in Figure 1 and analyzed the peptide fragments produced by mass spectrometry. We compared the degradation of a longer HIV peptide relevant to antigen processing and peptide-based immunogens with crude lysate and purified endolysosomes at pH 5.5 (late endosomal pH) and 4.0 (lysosomal pH) [26]. […] The products of the degradation after a 60-minute incubation with either crude lysate or purified endolysosomes at pH 4.0 and 5.5 were identified by mass spectrometry. […] We compared by mass spectrometry the identity and corresponding peak sirface intensities of all peptides produced in purified endolysosomes and in crude lysate at pH 4 and 5.5 (Additional file 3: Figure S3A).
as §1
The assay is adapted from previously published studies from our laboratory [31]. […] Another 50 μl of the degradation buffer was added to each sample and the amount of peptide remaining was analyzed by RP-HPLC.

[3] = in vitro; conditions: human, cells or culture medium, pH 4
Experimental: These degradation assays were performed in the presence of cathepsin inhibitors to identify specific cathepsins that played a role in antigen processing. […] The products of peptide degradation after 0, 10, 30 and 60 minutes of the reaction were analyzed by RP-HPLC and the percentage of remaining original peptide was quantified from the area under peak (Figure 3A). To rule out any effect of acidic pH on the peptides, the peptide was incubated for the same amount of time with the reaction buffer without any crude lysate and the peptide was quantified by RP-HPLC (Figure 3B). As mentioned in Figure 1D, a half-life of the peptide in the presence or absence of cathepsin can be calculated. […] Therefore, on fitting a one-phase exponential decay curve, we calculated the stability rate of the peptide at each pH (Figure 3C). […] The stability rate of the peptide without inhibitor was assigned a value of one and the fold change in the stability rate in the presence of inhibitors was calculated. […] The experiment was repeated using PBMC lysate from three different healthy donors and the average of three results are shown in Figure 3C.
as §2
8 nM of peptide was incubated with 30 μg of crude PBMC lysate in 250 μl of degradation buffer (20 mM HEPES, 1 mM magnesium chloride, 137 mM potassium acetate, 1 mM ATP) that was adjusted to the appropriate pH. In studies involving purified endolysosome, an acid phosphatase assay was performed on the fractions and the amount of acid phosphatase activity was used to calculate the total number of cells from which each fraction was derived. Using this approach, equivalent amount of cytosol and endolysosome that were derived from the same number of cells were used in peptide degradation assays. […] When using inhibitors, the compound was added to the crude lysate before addition of the peptide and incubated at room temperature for 30 minutes. […] Another 50 μl of the degradation buffer was added to each sample and the amount of peptide remaining was analyzed by RP-HPLC. […]

[4] = not given; remark: listed apart in the source

Row | Compound | half-life at 8 nM [1] | half-life [2] | half-life of the peptide in endolysosomes at pH 4.0 (purified endolysosomes, pH 4.0, 37°C, RP-HPLC, data not shown) | half-life [3] | number of peptide fragments identified after degradation in endolysosomes (pH 4) | fragments of the crude lysate degradation similar to those produced in endolysosomes, pH 4.0 ([4]; pH 4) | number of peptide fragments identified after degradation in crude lysate ([4]; pH 4) | fragments of the crude lysate degradation similar to the endolysosomal fraction, pH 5.5 ([4]; pH 5.5)
1 | CC[C@H](C)[C@H](NC(=O)[C@@H](NC(=O)[C@H](CCC(=O)O)NC(=O)[C@@H]1CCCN1C(=O)[C@H](CO)NC(=O)[C@H](Cc1ccccc1)NC(=O)[C@H](C)NC(=O)[C@@H](N)CCCCN)C(C)C)C(=O)N1CCC[C@H]1C(=O)N[C@@H](CCSC)C(=O)N[C@@H](Cc1ccccc1)C(=O)O [B57KF11] | 36 min | 8 min | 8 min | 6 min |  |  |  | 
2 | KVVEEKAFSPEVIPMFAAL [5-KF11-3] |  |  |  |  | 39 peptides | 84.75% | 32 peptides | 76.2%
